# Source: PubChem BioAssay AID2060352 (Molecular Pharmacology Branch, DTP, NCI, 2025)
# Test system: 616215-338-R-J1-PDC spheroid with HUVEC/MSC, viability
# Test: Anticancer human tumor 616215-338-R-J1-PDC patient-derived colon adenocarcinoma cell line growth inhibition [TAK]
# Conditions: for IC50: curve of first compound; for viability, T/C: stronger effect = lower value
# Source text: Combinatorial screen of targeted agents with TAK-243 and ipatasertib in multi-cell type tumor spheroids
# A high-throughput screen of multi-cell type tumor spheroids was designed to identify active combinations of targeted small molecules and TAK-243 or ipatasertib. Complex spheroids include a stromal component modeled by human endothelial cells (HUVEC) and fibroblasts modeled by human mesenchymal stem cells (MSCs). The concentration ranges selected for each drug and investigational agent were based upon clinically achievable concentrations if the clinical Cmax of the agent was known.
# Compounds. The drugs and investigational agents: TAK-243 (785004), ipatasertib (767898), everolimus (733504), selumetinib (741078), bortezomib (756655), trametinib (758246), ixazomib (758254), vemurafenib (761431), dabrafenib (764134), sapanisertib (764658), alpelisib (765974), and copanlisib (816437), were obtained from the National Cancer Institute (NCI) Developmental Therapeutics Program Chemical Repository. The FDA-approved anticancer drug set is available from the NCI Developmental Therapeutics Program. […] The stock solutions were prepared in dimethyl sulfoxide (DMSO, Sigma-Aldrich, St. Louis, MO, cat. D2650) at 800-fold the tested concentration and stored at -70 degrees C prior to their use. All drugs and investigational agents were tested over a range starting from a high concentration at or near the clinical Cmax and decreasing in half-log increments. If the clinical Cmax for an agent had not been determined, the highest concentration tested was 10 microM.
# NCI60 Cell Culture. NCI60 cell lines were obtained from the NCI Developmental Therapeutics Program Tumor Repository. For each lot of cells, the Repository performed Applied Biosystems AmpFLSTR Identifiler testing with PCR amplification to confirm consistency with the published Identifier STR profile for each cell line. Cells were kept in continuous culture for no more than 20 passages. The optimal seeding densities for each of the cell lines at each time point assessed were determined prior to performing the concentration response studies. Briefly, the NCI60 human tumor lines were grown as monolayers in RPMI 1640 medium supplemented with 10% FBS and 2 mmol/L L-glutamine.
# An additional 2 lines were from the NCI60 cell line panel including melanomas, MALME-3M and SK-MEL-2. Pooled donor human umbilical vein endothelial cells (HUVEC, Lonza, cat. CC-2519) and human mesenchymal stem cells (hMSC, Lonza, cat. PT-2501) were purchased from Lonza (Walkersville, MD).
# PDMR cell lines were grown in complete medium (DC medium): Dulbecco's modified Eagle's medium (DMEM)/F12 supplemented with 5% fetal bovine serum (FBS), 2 mM L-glutamine, 100 U/mL penicillin and 100 µg/ml streptomycin, 0.4 µg/ml hydrocortisone, 10 ng/ml epidermal growth factor (EGF) recombinant human protein, 24 µg/mL adenine, and 0.1 mg/mL primocin. During culture from frozen stock vials, PDMR cells were cultured in the same medium containing 10 µM Y-27632 (see Table 3). The PDCs were cultured in complete DMEM/F12 media without 10 microM Y-27632 dihydrochloride for at least two passages prior to the screen. The pooled donor HUVEC and hMSC were cultured in endothelial cell growth medium 2 (PromoCell, Heidelberg, Germany, cat. C-22011) and mesenchymal stem cell growth medium 2 (PromoCell, cat. C-28009), respectively. For all experiments, HUVEC and hMSC were used at passages </=5.
# For the pre-screen, cell seeding densities were determined from a titration spanning the range from 5,000 to 313 cells per well. The mct-spheroids including 60% malignant cells, 25% HUVEC and 15% MSC dispensed as a mixture into U-bottom Ultra-Low Attachment 384-well plates (Corning, NY)
# High-throughput Drug Combination Screening.
# Prior to their inoculation into 384-well plates, malignant cells, HUVEC, and hMSC were removed from T flasks using TrypLE express (Thermo Fisher Scientific, cat. 12605036) and harvested by centrifugation for 5 min at 233 x g. […]
# 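Also: spheroids exposed to drugs for 7 days before readout.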
structure (smiles),measurement,setting,value
CC(C)n1nc(-c2ccc3oc(N)nc3c2)c2c(N)ncnc21 + CC(C)NCC(C(=O)N1CCN(c2ncnc3c2C(C)CC3O)CC1)c1ccc(Cl)cc1,IC50,second compound 0.3 µM,85.8 nM
same,IC50,second compound 0.949 µM,18.3 nM
same,IC50,second compound 3 µM,2.73 nM
same,IC50,second compound 9.49 µM,< 0.316 nM
same,IC50,second compound 30 µM,< 0.316 nM
same,"viability, T/C","second compound 0.3 µM, first compound 0.000316 µM",93.5%
same,"viability, T/C","second compound 0.3 µM, first compound 0.001 µM",99.9%
same,"viability, T/C","second compound 0.3 µM, first compound 0.00316 µM",107%
same,"viability, T/C","second compound 0.3 µM, first compound 0.01 µM",130%
same,"viability, T/C","second compound 0.3 µM, first compound 0.0316 µM",112%
same,"viability, T/C","second compound 0.3 µM, first compound 0.1 µM",41.2%
same,"viability, T/C","second compound 0.949 µM, first compound 0.000316 µM",112%
same,"viability, T/C","second compound 0.949 µM, first compound 0.001 µM",119%
same,"viability, T/C","second compound 0.949 µM, first compound 0.00316 µM",109%
same,"viability, T/C","second compound 0.949 µM, first compound 0.01 µM",66.6%
same,"viability, T/C","second compound 0.949 µM, first compound 0.0316 µM",36.7%
same,"viability, T/C","second compound 0.949 µM, first compound 0.1 µM",22.3%
same,"viability, T/C","second compound 3 µM, first compound 0.000316 µM",77.2%
same,"viability, T/C","second compound 3 µM, first compound 0.001 µM",74.2%
same,"viability, T/C","second compound 3 µM, first compound 0.00316 µM",43.5%
same,"viability, T/C","second compound 3 µM, first compound 0.01 µM",28.2%
same,"viability, T/C","second compound 3 µM, first compound 0.0316 µM",17.5%
same,"viability, T/C","second compound 3 µM, first compound 0.1 µM",13.7%
same,"viability, T/C","second compound 9.49 µM, first compound 0.000316 µM",28.6%
same,"viability, T/C","second compound 9.49 µM, first compound 0.001 µM",25.8%
same,"viability, T/C","second compound 9.49 µM, first compound 0.00316 µM",19%
same,"viability, T/C","second compound 9.49 µM, first compound 0.01 µM",13.1%
same,"viability, T/C","second compound 9.49 µM, first compound 0.0316 µM",11%
same,"viability, T/C","second compound 9.49 µM, first compound 0.1 µM",10.2%
same,"viability, T/C","second compound 30 µM, first compound 0.000316 µM",12.6%
same,"viability, T/C","second compound 30 µM, first compound 0.001 µM",11.5%
same,"viability, T/C","second compound 30 µM, first compound 0.00316 µM",11.4%
same,"viability, T/C","second compound 30 µM, first compound 0.01 µM",7.84%
same,"viability, T/C","second compound 30 µM, first compound 0.0316 µM",7.49%
same,"viability, T/C","second compound 30 µM, first compound 0.1 µM",7.08%
Cn1cnc2c(F)c(Nc3ccc(Br)cc3Cl)c(C(=O)NOCCO)cc21 + CC(C)NCC(C(=O)N1CCN(c2ncnc3c2C(C)CC3O)CC1)c1ccc(Cl)cc1,IC50,second compound 0.3 µM,660 nM
same,IC50,second compound 0.949 µM,193 nM
same,IC50,second compound 3 µM,18.3 nM
same,IC50,second compound 9.49 µM,< 9.49 nM
same,IC50,second compound 30 µM,< 9.49 nM
same,"viability, T/C","second compound 0.3 µM, first compound 0.00949 µM",128%
same,"viability, T/C","second compound 0.3 µM, first compound 0.03 µM",145%
same,"viability, T/C","second compound 0.3 µM, first compound 0.0949 µM",134%
same,"viability, T/C","second compound 0.3 µM, first compound 0.3 µM",97.5%
same,"viability, T/C","second compound 0.3 µM, first compound 0.949 µM",28.6%
same,"viability, T/C","second compound 0.3 µM, first compound 3 µM",10.1%
same,"viability, T/C","second compound 0.949 µM, first compound 0.00949 µM",127%
same,"viability, T/C","second compound 0.949 µM, first compound 0.03 µM",110%
same,"viability, T/C","second compound 0.949 µM, first compound 0.0949 µM",68.7%
same,"viability, T/C","second compound 0.949 µM, first compound 0.3 µM",37.1%
same,"viability, T/C","second compound 0.949 µM, first compound 0.949 µM",16.3%
same,"viability, T/C","second compound 0.949 µM, first compound 3 µM",1.88%
same,"viability, T/C","second compound 3 µM, first compound 0.00949 µM",62.6%
same,"viability, T/C","second compound 3 µM, first compound 0.03 µM",39.6%
same,"viability, T/C","second compound 3 µM, first compound 0.0949 µM",26.2%
same,"viability, T/C","second compound 3 µM, first compound 0.3 µM",18.2%
same,"viability, T/C","second compound 3 µM, first compound 0.949 µM",7.02%
same,"viability, T/C","second compound 3 µM, first compound 3 µM",2.31%
same,"viability, T/C","second compound 9.49 µM, first compound 0.00949 µM",20.1%
same,"viability, T/C","second compound 9.49 µM, first compound 0.03 µM",16.6%
same,"viability, T/C","second compound 9.49 µM, first compound 0.0949 µM",12.3%
same,"viability, T/C","second compound 9.49 µM, first compound 0.3 µM",8.61%
same,"viability, T/C","second compound 9.49 µM, first compound 0.949 µM",3.42%
same,"viability, T/C","second compound 9.49 µM, first compound 3 µM",1.74%
same,"viability, T/C","second compound 30 µM, first compound 0.00949 µM",9.63%
same,"viability, T/C","second compound 30 µM, first compound 0.03 µM",9.43%
same,"viability, T/C","second compound 30 µM, first compound 0.0949 µM",6.77%
same,"viability, T/C","second compound 30 µM, first compound 0.3 µM",4.12%
same,"viability, T/C","second compound 30 µM, first compound 0.949 µM",1.89%
same,"viability, T/C","second compound 30 µM, first compound 3 µM",1.35%
